According to patent US12252457B2, “Compositions and methods for reducing tactile dysfunction, anxiety, and social impairment” (President and Fellows of Harvard College, priority 2018, dated 2025):

System: low-threshold mechanoreceptor neurons (LTMRs)
Assay: In vivo multiunit electrode recordings in the L4 DRG
Design: species or system mouse
From the text: FIGS. 20A-20O show isoguvacine attenuates tactile sensitivity through reduced excitability of peripheral, low-threshold mechanosensory neurons. FIG. 20A: Diagram for in vivo dorsal root ganglion (DRG) multi-unit electrode recordings, showing tetrode placement into the left L4 ganglia. FIG. 20B: Activity traces of two putative neurons (units) in response to a brush stimulus. FIG. 20C: Activity traces of two putative neurons (units) in response to a light air puff stimulus (1 PSI). FIGS. 20D-20G: Example unit identified during the spike sorting process. Average waveform at each electrode site (FIG. 20D, FIG. 20E), and inter-spike interval (FIG. 20F, FIG. 20G). FIG. 20H: Representative activity raster plots for multiple putative LTMRs in multiple mice over the duration of a recording experiment in controls and Advillin^Cre; Gabrb3^f/f mice. Mice received a subcutaneous injection of either saline or isoguvacine (2 mg/kg) during the experiment, and activity of light-touch responsive units in response to a light brush stimulus was assessed over a 90-minute period. FIG. 20I: Average firing frequency of LTMRs over the duration of each recording experiment, following subcutaneous injection of either saline or isoguvacine (2 mg/kg). Repeated measures, two-way ANOVA with post-hoc Dunnett's test, *p<0.05. FIG. 20J: Representative activity raster plots for putative LTMRs in multiple mice over the duration of recordings in controls and Shank3B^+/− mice. Mice received a subcutaneous injection of either saline or isoguvacine (2 mg/kg) during the experiment, and activity of light-touch responsive units was assessed over a 90-minute period. FIG. 20K: Average baseline spike rate of LTMRs in response to brush or air puff stimulus, in control and Shank3B^+/− mice. Student's t-test, *p<0.05. FIG. 20L: Average firing frequency of LTMRs over the duration of each recording experiment, following subcutaneous injection of either saline or isoguvacine (2 mg/kg). Repeated measures, two-way ANOVA with post-hoc Dunnett's test, *p<0.05. […] Two-way ANOVA with post-hoc Sidak's test, *, p<0.05. FIG. 20N: Response to a light air puff stimulus alone in mice following i.p. administration of either saline or 2 mg/kg isoguvacine treatment. Responses are expressed as percent of startle response to a 125 dB noise. Two-way ANOVA with post-hoc Sidak's test, *, p<0.05. FIG. 20O: Magnitude of startle response to a 125 dB noise in mice following i.p. administration of either saline or 2 mg/kg isoguvacine treatment. Responses are expressed as percent of startle response to a 125 dB noise. Two-way ANOVA with post-hoc Sidak's test, *, p<0.05.
To test the hypothesis that isoguvacine exerts its effects by acting directly on primary somatosensory neurons, electrophysiological recordings were performed both in vitro and in vivo. DRG cultures from Mecp2 and Shank3 mutant and control littermates were first produced to assess excitability of these neurons in vitro using whole cell patch-clamp recordings. […] It was next asked whether administration of isoguvacine would reduce mechanosensory neuron sensitivity in vivo by performing multiunit electrode recordings in the L4 DRG of urethane- and isoflurane-anesthetized mice (FIG. 20A). […] Once LTMR units were identified, animals were administered a subcutaneous injection of either saline vehicle or isoguvacine (2 mg/kg) and then sensitivity and firing frequency in response to tactile stimuli were monitored over a 90-minute period for each identified unit. […]

In the case of `O=C(O)C1=CCNCC1` [Isoguvacine, isoguvacine], the “proprioceptor sensitivity and firing” value (2 mg/kg subcutaneous) is reported as “unaffected”, the “response thresholds to light touch stimuli and spiking of glabrous- and hairy-skin innervating Aβ LTMRs” value (2 mg/kg subcutaneous) is reported as “increased response thresholds to light touch stimuli and reduced spiking” and the “tactile stimulus-evoked LTMR sensitivity” value (Advillin^Cre, Gabrb3^f/f mice, 2 mg/kg subcutaneous) is reported as “no changes in tactile stimulus-evoked LTMR sensitivity”. For the same compound, the LTMR firing (Shank3B and control littermates, 2 mg/kg subcutaneous) was “attenuated firing” and the “tactile stimulus-evoked (brush or air puff) responsivity of LTMRs” value (control mice, sixty minutes after 2 mg/kg subcutaneous) was “significantly decreased”.
